Source: patent publication US12622901B2, “Compounds for tau protein degradation” (Dana-Farber Cancer Institute, Inc., priority 2017, dated 2026)
Entries after “also recorded” stand apart in the source; their conditions may differ. Read-outs that look alike come from different tables or passages of the source.

What was measured:
tau protein [1] = molecular target: T1, tau protein (Homo sapiens, UniProt P10636, A469T); assay: Tau degradation assay (western blot) in human tau-A152T neurons; type: cell-based
T1 construct: cultured human differentiated frontotemporal lobar dementia (FTD) neurons; endogenous in cells; host or cells: human differentiated FTD neurons, tau-A152T (line 19-5-RC6)
Method: Example compounds 1-12 were evaluated for their ability to degrade tau protein in cultured human differentiated frontotemporal lobar dementia (FTD) neurons. […] For each condition, 1 well of differentiated neuronal cells (6 well-plate) was washed and collected in PBS, pelleted and lysed in RIPA buffer (Boston Bio-Products) with 2% SDS (Sigma), protease inhibitors (Roche Complete Mini tablets), and phosphatase inhibitors (Sigma), followed by sonication in a water sonicator (Bransonic Ultrasonic Baths, Thomas Scientific) for 5 min, and centrifugation at 20,000 g for 15 min. Supernatants were transferred to new tubes, total protein concentration was quantified with the Pierce BCA Protein Assay Kit (Thermo), and SDS-PAGE gels were loaded with 10 μg total protein per well (pre-boiled samples). Western blots were performed with the Novex NuPAGE SDS-PAGE Gel System (Invitrogen). All samples were resolved in 7% Tris-Acetate gels with Tris-Acetate running buffer (Invitrogen). Blots were probed with antibodies against total tau (TAU5) and phosphosrylated tau (Ser396), along with β-actin as a loading control; followed by corresponding HRP-linked secondary antibodies (Cell Signaling Technology), and SuperSignal West Pico Chemiluminescent Substrate (Thermo) detection. Membranes were exposed to autoradiographic film (LabScientific) and films were scanned using an Epson Perfection V800 Photo Scanner. Protein band intensities (pixel mean intensity) were quantified using Adobe Photoshop CS5 Histogram function. Whereas the vehicle alone (DMSO) had no effect on tau, varying degrading activity was observed amongst the compounds, however with overall similar relative levels of degrading activity between tau-A152T neurons and tau-P301L neurons. Compounds were added at the doses indicated of either 0.1, 1, 5, or 10 μM.
(§1) Four-week differentiated neurons, both non-mutant (8330-8) and tau-A152T (19-5-RC6) were employed. The neurons were treated with T807 for 24 hours (at 10 μg/mL=59.4 μM). One well of differentiated neuronal cells (6 well-plate, treated or untreated) was washed and collected in PBS, pelleted and directly lysed in 200 μL of Sample Buffer (New England Biolabs) supplemented with 3X DTT, boiled for 15 min and 10 μL of each lysate was run by SDS-PAGE in a 4-12% Bis-Tris Gel, with MOPS running buffer. Blots were probed with antibodies to total tau (DA9) and phosphorylated tau (Ser396, PHF1, AT8) along with GAPDH as a loading control.
Example compounds 2-5 were reevaluated for their ability to degrade tau protein in human FTD neurons as well as evaluate their effect on E3 ubiquitin ligases CRBN, VHL, and CHIP (FIG. 4A-E). For each control and treatment, 1 well of differentiated neuronal cells (6 well-plate) was washed and collected in PBS, pelleted and lysed in RIPA buffer (Boston Bio-Products) with 2% SDS (Sigma), protease inhibitors (Roche Complete Mini tablets), and phosphatase inhibitors (Sigma), followed by sonication in a water sonicator (Bransonic Ultrasonic Baths, Thomas Scientific) for 5 min, and centrifugation at 20,000 g for 15 min. Supernatants were transferred to new tubes, total protein concentration was quantified with the Pierce BCA Protein Assay Kit (Thermo), and SDS-PAGE gels were loaded with 10 μg total protein per well (pre-boiled samples). […] Protein band intensities (pixel mean intensity) were quantified using Adobe Photoshop CS5 Histogram function. […]

A152T neurons [2] = assay: Neuronal viability / rescue of stress vulnerability to β-amyloid (1-42) peptide; conditions: A152T neurons differentiated 8 weeks; compound alone; FIG. 7
tau protein [3] = molecular target: T2, tau protein (Homo sapiens, UniProt P10636, P618L); assay: Tau degradation assay (western blot) in human tau-P301L neurons; type: cell-based
T2 construct: cultured human differentiated frontotemporal lobar dementia (FTD) neurons; endogenous in cells; host or cells: human differentiated FTD neurons, tau-P301L
Method: Example compounds 1-12 were evaluated for their ability to degrade tau protein in cultured human differentiated frontotemporal lobar dementia (FTD) neurons. […] For each condition, 1 well of differentiated neuronal cells (6 well-plate) was washed and collected in PBS, pelleted and lysed in RIPA buffer (Boston Bio-Products) with 2% SDS (Sigma), protease inhibitors (Roche Complete Mini tablets), and phosphatase inhibitors (Sigma), followed by sonication in a water sonicator (Bransonic Ultrasonic Baths, Thomas Scientific) for 5 min, and centrifugation at 20,000 g for 15 min. Supernatants were transferred to new tubes, total protein concentration was quantified with the Pierce BCA Protein Assay Kit (Thermo), and SDS-PAGE gels were loaded with 10 μg total protein per well (pre-boiled samples). Western blots were performed with the Novex NuPAGE SDS-PAGE Gel System (Invitrogen). […] Protein band intensities (pixel mean intensity) were quantified using Adobe Photoshop CS5 Histogram function. […]
Example compounds 2-5 were reevaluated for their ability to degrade tau protein in human FTD neurons as well as evaluate their effect on E3 ubiquitin ligases CRBN, VHL, and CHIP (FIG. 4A-E). […] Supernatants were transferred to new tubes, total protein concentration was quantified with the Pierce BCA Protein Assay Kit (Thermo), and SDS-PAGE gels were loaded with 10 μg total protein per well (pre-boiled samples). […]

tau protein [4] = molecular target: T3, tau protein (Homo sapiens, UniProt P10636); assay: Tau degradation assay (western blot) in non-mutant control human neurons; type: cell-based
T3 construct: Four-week differentiated neurons, both non-mutant (8330-8) and tau-A152T (19-5-RC6) were employed; endogenous in cells; host or cells: human differentiated non-mutant control neurons (8330-8, 8330-8-RC1, CTR2-L17-RC2)
Method: as §1
Example compounds 2-5 were again evaluated in tau degradation assays in non-mutant control, A152T and P301L neurons (6-week differentiated). Non-mutant neurons were employed as a negative control since derivatives of T807 should not recognize non-disease states of tau based upon how the series was identified, using selection for binding to pathological forms of tau in post-mortem brain lysates and tissue slices. […] Supernatants were transferred to new tubes, total protein concentration was quantified with the Pierce BCA Protein Assay Kit (Thermo), and SDS-PAGE gels were loaded with 10 μg total protein per well (pre-boiled samples). […] Protein band intensities (pixel mean intensity) were quantified using Adobe Photoshop CS5 Histogram function. […]

A152T neurons [5] = tested on: A152T neurons

T3 sequence (P10636 1-441 isoform P10636-8): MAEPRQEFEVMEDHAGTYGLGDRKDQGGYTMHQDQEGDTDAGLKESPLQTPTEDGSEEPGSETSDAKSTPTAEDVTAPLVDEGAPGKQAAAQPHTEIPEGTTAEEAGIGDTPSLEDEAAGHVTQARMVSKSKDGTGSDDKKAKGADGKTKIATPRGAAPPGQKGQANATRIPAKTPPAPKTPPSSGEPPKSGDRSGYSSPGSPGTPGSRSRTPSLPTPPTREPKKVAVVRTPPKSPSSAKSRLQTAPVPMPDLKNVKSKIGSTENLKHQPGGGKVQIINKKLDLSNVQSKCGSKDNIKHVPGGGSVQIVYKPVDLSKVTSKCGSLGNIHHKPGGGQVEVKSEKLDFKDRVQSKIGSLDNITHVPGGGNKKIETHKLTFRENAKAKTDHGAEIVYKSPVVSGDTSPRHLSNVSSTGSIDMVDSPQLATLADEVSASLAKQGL
T1 sequence (P10636 1-441 isoform P10636-8 A152T): as the sequence (P10636 1-441 isoform P10636-8) above, with A152T counted along it
T2 sequence (P10636 1-441 isoform P10636-8 P301L): as the sequence (P10636 1-441 isoform P10636-8) above, with P301L counted along it

O=C(CCc1ccc2c(c1)[nH]c1ccncc12)NCCOCCNc1cccc2c1C(=O)N(C1CCC(=O)NC1=O)C2=O (stereo not shown) [Compound 2, N-(2-(2-((2-(2,6-dioxopiperidin-3-yl)-1,3-dioxoisoindolin-4-yl)amino)ethoxy)ethyl)-3-(5H-pyrido[4,3-b]indol-7-yl)propanamide]
dose-dependency of effect on tau (tau protein [1]; 6-week differentiated A152T neurons, treatment for 24 hours, FIG. 6): dose dependent effect on tau
effect on neuronal viability (A152T neurons [2]): no effect on neuronal viability

Fc1ccc(-c2ccc3c(c2)[nH]c2ccncc23)cn1 [Compound T807]
effect on total tau and phospho-tau (S396) levels (tau protein [3]; P301L neurons, 6-week differentiated, 1 μM, FIG. 5): no effect
effect on total tau and phospho-tau (S396) levels (tau protein [1]; A152T neurons, 6-week differentiated, 1 μM, FIG. 5): no effect
effect on total tau and phosphorylated tau levels (tau protein [1]; tau-A152T (19-5-RC6) neurons, four-week differentiated, 24 h at 10 μg/mL=59.4 μM, FIG. 3): No significant tau lowering activity; also recorded: no effect on tau levels and did not degrade tau
effect on total tau and phosphorylated tau levels (tau protein [4]; non-mutant (8330-8) neurons, four-week differentiated, 24 h at 10 μg/mL=59.4 μM, FIG. 3): No significant tau lowering activity; also recorded: no effect on tau levels and did not degrade tau
effect on total tau and phospho-tau (S396) levels (tau protein [4]; non-mutant control neurons, 6-week differentiated, 1 μM, FIG. 5): no effect

Nc1cccc2c1CN(C1CCC(=O)NC1=O)C2=O (stereo not shown) [Lenalidomide]
effect on total tau and hyperphosphorylated tau levels (tau protein [3]; tau-P301L neurons, 8-week differentiated, 24 h treatment, 0.1, 1, 5 or 10 μM (lenalidomide 1 or 10 μM), TAU5, pSer396): no effect on tau levels
effect on total tau and hyperphosphorylated tau levels (tau protein [1]; tau-A152T neurons, 5-week differentiated, 24 h treatment, 0.1, 1, 5 or 10 μM (lenalidomide 1 or 10 μM), TAU5, pSer396): no effect on tau levels

N-(17-(2-((2-(2,6-dioxopiperidin-3-yl)-1,3-dioxoisoindolin-4-yl)amino)-3,6,9,12,15-pentaoxaheptadecyl)-3-(5H-pyrido[4,3-b]indol-7-yl)propanamide [Compound 5]
effect on neuronal viability (A152T neurons [5]): no effect on neuronal viability
